Earlier results on one compound are cited in paper PMC3901259, “Characterisation of the Metabolites of 1,8-Cineole Transferred into Human Milk: Concentrations and Ratio of Enantiomers” (Metabolites, 2013).

Where two headings read alike, the source gives them in different places.

On the set-up of data set [1]: method as in PMID 22405404. The settings on record: cited from earlier work.
For another data set, the system named is rats. The arrangement: method as in PMID 6068552. The settings on record: cited from earlier work.

Consider `CC12CCC(CC1)C(C)(C)O2` [1,8-cineole, 1,8-Cineole], for which the “Concentration of 1,8-cineole in human milk” value (“Concentration of 1,8-cineole” for short) in data set [1] (sample A-1a (no odour), beyond calibration range, approximation) is 2.43 µg/kg; in data set [1] (sample A-1b (odour yes)) it was 134.72 µg/kg; in data set [1] (sample B-1 (odour yes)), 399.39 µg/kg; in data set [1] (sample B-2a (no odour)), 0.98 µg/kg; in data set [1] (sample B-2b (odour yes)), 70.97 µg/kg; in data set [1] (sample B-2c (no odour)), 14.82 µg/kg. The “Concentration of 1,8-cineole” value in data set [1] (sample C (no odour)) was 13.56 µg/kg; in data set [1] (sample D-1 (no odour), beyond calibration range, approximation), 5.75 µg/kg; in data set [1] (sample D-2 (odour yes)), 226.09 µg/kg; in data set [1] (sample E-1 (no odour), beyond calibration range, approximation), 3.19 µg/kg; in data set [1] (sample E-2 (odour yes)), 504.93 µg/kg; in data set [1] (sample F (no odour), two capsules, beyond calibration range, approximation), 20.23 µg/kg. Also, the “Concentration of 1,8-cineole” value in data set [1] (sample G (odour yes)) was 194.46 µg/kg. Also, the “1,8-cineole: concentration calculated with the last calibration point (limit in parentheses)” value in data set [1] (sample A-1a (no odour)) is below 13.65 µg/kg; in data set [1] (sample D-1 (no odour)) it was below 10.59 µg/kg; in data set [1] (sample E-1 (no odour)), below 13.18 µg/kg; in data set [1] (sample F (no odour), two capsules) it was below 26.14 µg/kg. In addition, in the data set with rats, the “acute oral LD50” value is given as 2.5 g/kg bodyweight.
